# Source: the supplement of paper PMC8633005
# Columns and labels:
# Test in all cases: drug sensitivity score (DSS) (DSS (unitless, 0-50 scale)); higher = more sensitive (stronger viability inhibition); extreme values may be limits of the assay
# Settings in all cases: 72 h; culture: 2D
# [1] = system: WM165
# Summary of the method: (§1)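 Viability was measured by CellTiter-Glo luminescence after 72 h at 37 °C in 384-well plates holding a 527-compound oncology library, with patient-derived melanoma cultures (1000–1500 cells per well) and melanoma cell lines grown in 2D. Every compound was tested at five concentrations spanning a 10,000-fold range. The drug sensitivity score, a modified area under the curve, came from dose-response curves fitted with in-house Breeze software.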
# [2] = system: SK-MEL-2
# Summary of the method: as §1
# [3] = system: FM-MEL-6
# Summary of the method: as §1
# [4] = system: FM-MEL-2
# Summary of the method: as §1
# [5] = system: Bowes
# Summary of the method: as §1
# [6] = system: SK-MEL-28
# Summary of the method: as §1
# [7] = system: FM-MEL-3
# Summary of the method: as §1
# [8] = system: WM852
# Summary of the method: as §1
SMILES,drug sensitivity score [1],drug sensitivity score [2],drug sensitivity score [3],drug sensitivity score [4],drug sensitivity score [5],drug sensitivity score [6],drug sensitivity score [7],drug sensitivity score [8]
FC(F)c1nc2ccccc2n1-c1nc(N2CCOCC2)nc(N2CCOCC2)n1 [ZSTK474],9,4.6,8.7,10.8,7,12.2,7.2,7
CC[C@@H](C(=O)[C@@H](C)[C@@H](O)[C@H](C)[C@@H]1O[C@@H]([C@@H](CC)C(=O)O)CC[C@@H]1C)[C@H]1O[C@]2(C=C[C@@H](O)[C@]3(CC[C@@](C)([C@H]4CC[C@](O)(CC)[C@H](C)O4)O3)O2)[C@H](C)C[C@@H]1C [Salinomycin],18.3,2.1,13.2,6.4,19.1,9.5,6.9,9.9
Nc1nc2[nH]cc(CCc3ccc(C(=O)N[C@@H](CCC(=O)O)C(=O)O)cc3)c2c(=O)[nH]1 [Pemetrexed],7.4,0,0.1,0.6,24.5,6.6,0,0
O=C1CCc2c(Oc3ccc4c(c3)[C@@H]3[C@H](O4)[C@H]3c3nc4cc(C(F)(F)F)ccc4[nH]3)ccnc2N1 [BGB-283],15.6,7.4,6.2,12.1,4,16.5,16.5,4.5
CC[C@@H]1[C@H](F)C(=O)N[C@@H]1COc1nccc2cc(C(N)=O)c(OC)cc12,1.7,0,0,1.1,1.4,0,0.2,0.6
Nc1ncnc2c1nc(N)n2[C@@H]1O[C@H](CO)[C@@H](O)[C@H]1O [8-amino-adenosine],23.2,20.9,20.5,19.4,16.3,22.6,18.5,18.1
Nc1ncn([C@@H]2O[C@H](CO)[C@@H](O)[C@H]2O)c(=O)n1 [Azacitidine],4.2,1.6,4.7,3.1,2.6,0.4,8.6,0.1
COc1c(OCCCN2CCOCC2)ccc2c1N=C(NC(=O)c1cnc(N)nc1)N1CCN=C21 [Copanlisib],6.5,3.5,4.3,10.2,8.3,8.3,7.1,6.5
Cc1cc(Nc2cc(N3CCN(C)CC3)nc(Sc3ccc(NC(=O)C4CC4)cc3)n2)n[nH]1 [Tozasertib],12.8,2.8,2.7,1.9,11.7,5.1,4.5,3.5
CN(Cc1cnc2nc(N)nc(N)c2n1)c1ccc(C(=O)N[C@@H](CCC(=O)O)C(=O)O)cc1 [Methotrexate],14.4,0,0,0,27.7,9,0,0
CN(C)CCOc1ccc(/C(=C(/CCCl)c2ccccc2)c2ccccc2)cc1 [Toremifene],4.3,1.6,6,5.8,1.1,4.4,7.8,3.4
C[C@H]1CN(C2COC2)CCN1c1ccc(Nc2cc(-c3ccnc(N4CCn5c(cc6c5CC(C)(C)C6)C4=O)c3CO)cn(C)c2=O)nc1 [GDC-0853],0,0,0,0,0,0,0,0
CN(C)c1cc2c(cc1Sc1nc3c(N)nccc3n1CCNCC(C)(C)C)OCO2 [CUDC-305],16.1,10.7,5.3,9.7,13.8,8.6,13,7.2
COc1ccc(Cn2ccc3ccc(C(=O)NO)cc32)cc1,1.6,0,0,0,0,0.2,0.3,0.6
Cn1cc(-c2ccc(F)c(C(F)(F)F)c2)nc1C1CCN(c2ncnc3[nH]ncc23)CC1,0,0,0,0,0,0,0,0
CN(C)C/C=C/C(=O)Nc1cc2c(Nc3ccc(F)c(Cl)c3)ncnc2cc1O[C@H]1CCOC1 [Afatinib],0,0,0.3,0,2.2,0,0.5,0
Nc1ncn([C@H]2C[C@H](O)[C@@H](CO)O2)c(=O)n1 [Decitabine],0.7,0,3.4,0,0,0,0,0
Cc1cc(F)c(C(=O)Nc2cccc(-c3nncn3C(C)C)n2)cc1-n1cnc(C2CC2)c1 [Selonsertib],0,0,0,0,0,0,0,0
COc1cc2c(cc1OC(C)C)[C@H](c1ccc(Cl)cc1)N(c1ccc(N(C)C[C@H]3CC[C@H](N4CCN(C)C(=O)C4)CC3)cc1)C(=O)C2 [NVP-CGM097],18,3.7,5,7.6,5.1,6.2,13.1,6.8
CCn1c(C(=O)N(C2CC2)C2CC2)cc2c3c(ncn3C)c(Nc3cc(C)n(C)n3)nc21,0,0,0.8,2.3,0,0.4,0,0
COc1cc2ncnc(Nc3cccc(Cl)c3F)c2cc1OC(=O)N1CCN(C)C[C@H]1C [AZD3759],0,0,0,0,0,0,0,0
C=CCN(/C=C1/C(=O)O[C@H](COC)[C@@]2(C)C1=C(O)C(=O)C1=C2[C@H](OC(C)=O)C[C@]2(C)C(=O)CC[C@@H]12)CC=C [Sonolisib],0,0,0,0,0,0,0,0
